# PubChem BioAssay (NCI)
#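 Interpolation was linear, between the two tested concentrations surrounding the appropriate level; five concentrations were tested over 48 hours in 96-well plates. Abbreviation: GI50, concentration required for 50% inhibition of growth. The concentration for full growth arrest is given as TGI.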
# How the values were obtained:
# Experiment in all cases: NCI tumour cell line growth inhibition, 48 h
# SK-MEL-5 melanoma = system: SK-MEL-5 melanoma
# HCT-15 colon = system: HCT-15 colon
# TK-10 renal = system: TK-10 renal
# MDA-MB-435 = system: MDA-MB-435
# SF-539 CNS = system: SF-539 CNS
# UO-31 renal = system: UO-31 renal
# A498 renal = system: A498 renal
# 786-0 renal = system: 786-0 renal
# M14 melanoma = system: M14 melanoma
# OVCAR-4 ovarian = system: OVCAR-4 ovarian
# UACC-257 melanoma = system: UACC-257 melanoma
# SR leukemia = system: SR leukemia
# T-47D breast = system: T-47D breast
# MDA-MB-231 breast = system: MDA-MB-231 breast
# MOLT-4 leukemia = system: MOLT-4 leukemia
# CCRF-CEM leukemia = system: CCRF-CEM leukemia
# UACC-62 melanoma = system: UACC-62 melanoma
# NCI-H522 lung = system: NCI-H522 lung
# NCI/ADR-RES ovarian = system: NCI/ADR-RES ovarian
# KM12 colon = system: KM12 colon
# PC-3 prostate = system: PC-3 prostate
# HCT-116 colon = system: HCT-116 colon
# COLO 205 colon = system: COLO 205 colon
# HOP-92 NSCLC = system: HOP-92 NSCLC
# SF-295 CNS = system: SF-295 CNS
# HS 578T breast = system: HS 578T breast
# HT29 colon = system: HT29 colon
# U251 CNS = system: U251 CNS
# NCI-H226 lung = system: NCI-H226 lung
# SN12C renal = system: SN12C renal
# NCI-H460 lung = system: NCI-H460 lung
# OVCAR-8 ovarian = system: OVCAR-8 ovarian
# HCC-2998 colon = system: HCC-2998 colon
# K-562 leukemia = system: K-562 leukemia
# SW-620 colon = system: SW-620 colon
# NCI-H23 lung = system: NCI-H23 lung
# OVCAR-3 ovarian = system: OVCAR-3 ovarian
# RPMI-8226 leukemia = system: RPMI-8226 leukemia
# ACHN renal = system: ACHN renal
# EKVX NSCLC = system: EKVX NSCLC
# BT-549 breast = system: BT-549 breast
# SNB-19 CNS = system: SNB-19 CNS
# A549 NSCLC = system: A549 NSCLC
# MDA-N = system: MDA-N
# CAKI-1 renal = system: CAKI-1 renal
# IGROV1 ovarian = system: IGROV1 ovarian
# SK-OV-3 ovarian = system: SK-OV-3 ovarian
# HOP-62 NSCLC = system: HOP-62 NSCLC
# OVCAR-5 ovarian = system: OVCAR-5 ovarian
# HL-60(TB) leukemia = system: HL-60(TB) leukemia
# SF-268 CNS = system: SF-268 CNS
# SK-MEL-28 melanoma = system: SK-MEL-28 melanoma
# DU-145 prostate = system: DU-145 prostate
# MALME-3M melanoma = system: MALME-3M melanoma
# RXF 393 renal = system: RXF 393 renal
# LOX IMVI melanoma = system: LOX IMVI melanoma
# MCF7 breast = system: MCF7 breast
structure (smiles),measurement,setting,value
CC(=O)Nc1cc2c(cc1O)CC[C@@H]1[C@@H]2CC[C@]2(C)[C@@H](O)CC[C@@H]12,TGI,SK-MEL-5 melanoma,59.8 µM
same,TGI,HCT-15 colon,54.5 µM
same,TGI,TK-10 renal,> 100 µM
same,TGI,MDA-MB-435,50.8 µM
same,TGI,SF-539 CNS,> 100 µM
same,TGI,UO-31 renal,97.9 µM
same,TGI,A498 renal,70.7 µM
same,TGI,786-0 renal,> 100 µM
same,TGI,M14 melanoma,> 100 µM
same,TGI,OVCAR-4 ovarian,> 100 µM
same,TGI,UACC-257 melanoma,> 100 µM
same,TGI,SR leukemia,> 100 µM
same,TGI,T-47D breast,95.8 µM
same,TGI,MDA-MB-231 breast,> 100 µM
same,TGI,MOLT-4 leukemia,> 100 µM
same,TGI,CCRF-CEM leukemia,> 100 µM
same,GI50,UACC-62 melanoma,31.2 µM
same,TGI,UACC-62 melanoma,> 100 µM
same,TGI,NCI-H522 lung,81.5 µM
same,TGI,NCI/ADR-RES ovarian,55.9 µM
same,TGI,KM12 colon,31.4 µM
same,TGI,PC-3 prostate,> 100 µM
same,GI50,HCT-116 colon,39.8 µM
same,TGI,HCT-116 colon,> 100 µM
same,TGI,COLO 205 colon,62.2 µM
same,TGI,HOP-92 NSCLC,> 100 µM
same,TGI,SF-295 CNS,> 100 µM
same,TGI,HS 578T breast,> 100 µM
same,TGI,HT29 colon,> 100 µM
same,TGI,U251 CNS,> 100 µM
same,TGI,NCI-H226 lung,> 100 µM
same,GI50,SN12C renal,48.5 µM
same,TGI,SN12C renal,> 100 µM
same,TGI,NCI-H460 lung,> 100 µM
same,TGI,OVCAR-8 ovarian,> 100 µM
same,TGI,HCC-2998 colon,82.4 µM
same,TGI,K-562 leukemia,> 100 µM
same,TGI,SW-620 colon,71.9 µM
same,TGI,NCI-H23 lung,> 100 µM
same,GI50,OVCAR-3 ovarian,9.2 µM
same,TGI,OVCAR-3 ovarian,> 100 µM
same,TGI,RPMI-8226 leukemia,> 100 µM
same,TGI,ACHN renal,> 100 µM
same,TGI,EKVX NSCLC,> 100 µM
same,TGI,BT-549 breast,86.3 µM
same,TGI,SNB-19 CNS,> 100 µM
same,TGI,A549 NSCLC,> 100 µM
same,TGI,MDA-N,52.1 µM
same,TGI,CAKI-1 renal,> 100 µM
same,TGI,IGROV1 ovarian,> 100 µM
same,TGI,SK-OV-3 ovarian,> 100 µM
same,TGI,HOP-62 NSCLC,> 100 µM
same,TGI,OVCAR-5 ovarian,> 100 µM
same,TGI,HL-60(TB) leukemia,> 100 µM
same,TGI,SF-268 CNS,68.8 µM
same,TGI,SK-MEL-28 melanoma,> 100 µM
same,GI50,DU-145 prostate,> 100 µM
same,TGI,DU-145 prostate,> 100 µM
same,TGI,MALME-3M melanoma,> 100 µM
same,TGI,RXF 393 renal,> 100 µM
same,TGI,LOX IMVI melanoma,> 100 µM
same,TGI,MCF7 breast,> 100 µM
